Laboratory results reported in US20150031128A1, “CULTURE MEDIUM FOR EUKARYOTIC CELLS” (Friesland Brands B.V., priority 2012, published 2015).
Peptide text beside a SMILES is read from it.

Experiments:
[1] = test system: antibody production in cell culture; assay: Correlation (linear regression, SLOPE) of antibody production with relative concentration of components in plant protein hydrolysates; assay type: cell-based; settings: linear regression over plant protein hydrolysates; higher positive slope = higher importance
Protocol: Commercial plant protein hydrolysates like SE50MAF-UF, WGE80M-UF, CNE80M-UF, PCE80B obtained from FrieslandCampina Domo, USA were analysed by Liquid chromatography/Mass Spectrometry (LC/MS, LC/MS2) using a Waters Acquity UPLC and a Thermo-Finnigan LTQ mass spectrometer, which consists of an electrospray ionization (ESI) source and linear ion-trap (LIT) mass analyzer. The sample extract was split into two aliquots, dried, then reconstituted in acidic or basic LC-compatible solvents. One aliquot was analyzed using acidic positive ion optimized conditions and the other using basic negative ion optimized conditions in two independent injections using separate dedicated columns. […] Using the SLOPE function of Microsoft Excel 2003, the correlation between antibody production and relative concentration of the components was calculated, the results of which are presented in Table 1 below. The higher the positive slope, the higher the importance of a biochemical component in the cell culture. p-values, also calculated using MS Excel's correlation regression function, represent the significance of the values, with the lower the p-value (all between 0 and 1), the more significant the measured value.

[2] = test system: IgG expressing CHO cell line (CHO-2: ATCC CRL 11397, producing IgG4); assay: Specific IgG production of IgG expressing CHO cells in supplemented chemically defined medium (sandwich ELISA / AUC); assay type: cell-based, Chinese hamster; settings: ratio of cumulative IgG production (mg/ml) and AUC at day 11
Protocol: (§1) The cell culture assay was carried out in commercially available IS CHO-CD medium (Irvine Scientific, Cat. No. 91119). To this media, L-Glutamine (2 mM), pluronic acid, hypoxanthine (100 μM) and thymidine (15 μM) were added. Penicillin and streptomycin were added to prevent any bacterial growth during the growth assay. The media was supplemented with sodium-L-lactate, methyl-L-3-phenyl lactate, mucic acid, D-chiro-inositol, ferulic acid, syringic acid, adenine (A2786) and trigonelline, all purchased from Sigma Aldrich, Germany, in varying concentrations (see Table 2). The supplemented medium was mixed with a vortex mixture, filtered using a 0.22 μm filter and subsequently used in a growth assay.
(§2) An IgG expressing CHO cell line was used (CHO-2: ATCC CRL 11397, producing IgG4). The cell lines were grown in the adherent conditions for a few passages and once confluent, they were transferred to animal-free conditions in the supplemented media described in Example 2.
(§3) To measure growth and production curves, Chinese hamster ovary (CHO) cells were grown in suspension culture in baffled flasks. 20×10^6 cells were transferred in 25 ml media to the baffled flasks. Chemically defined media with and without added cell culture medium components were tested. No fresh media was added during the growth assay. Cells were counted using the CEDEX HiRes cell counter (Innovatis, Germany). The cell counts were used to calculate the area under the growth curve and represented as dimensionless area under curve (AUC) values as described in detail in Ling, C. X, Huang, J. and Zhang, H. (2003), International joint conferences on artificial intelligence, pp. 329-341. The supernatant samples were taken every alternate days for the IgG production measurements. IgG production was measured using sandwich ELISA method. The specific IgG production was calculated by taking the ratio of cumulative IgG production (in mg/ml) and AUC measured at day 11 of the growth assay. The cells were visually inspected using a phase contrast microscope (Zeiss Axiovert 25, 400× magnification). […] Only single cells were observed and no aggregation of cells was seen. The cell shape was also positively affected. […] This was in contrast with the observation that a lot of cell aggregates were present in CHO cell cultures grown in chemically defined medium without cell culture medium components.
(§4) Table 2A and 2B. Specific IgG production and cell growth of CHO cells in chemically defined cell culture medium (see Example 5 for details) with added cell culture medium components of the invention in varying concentrations. Production and growth data in chemically defined cell culture medium without added alpha-hydroxy acid derivatives, as well as in chemically defined cell culture medium supplemented with soy protein hydrolysate (0.4% w/v) and with fetal calf serum (Gibco-Invitrogen; 5% v/v) are provided for comparison.

[3] = test system: IgG expressing CHO cell line (CHO-2: ATCC CRL 11397, producing IgG4); assay: Cell growth (area under growth curve) of CHO cells in supplemented chemically defined medium; assay type: cell-based, Chinese hamster; settings: dimensionless AUC
Protocol: as §1, §2, §3, §4

[4] = component added at 1 × 10^−1 % w/v
[5] = component added at 1 × 10^−2 % w/v
[6] = component added at 1 × 10^−3 % w/v

Row | SMILES | SLOPE (correlation of antibody production and relative concentration of cell culture medium component) [1] | Specific IgG production after 11 days [2, 4] | Specific IgG production after 11 days [2, 5] | Specific IgG production after 11 days [2, 6] | Cell growth (area under curve) after 14 days [3, 4] | Cell growth (area under curve) after 14 days [3, 5] | Cell growth (area under curve) after 14 days [3, 6]
1 | O=C(O)CC[C@@H]1NC(=O)CNC1=O [cyclo(Gly-Glu)] | 1584.22 | – | – | – | – | – | –
2 | COc1cc(C(=O)O)cc(OC)c1O [Syringic Acid, 4-hydroxy-3,5-dimethoxybenzoic acid] | – | 96.8 | 93.2 | 77.3 | 60.0 | 58.8 | 53.4
3 | COc1cc(/C=C/C(=O)O)ccc1O [ferulic acid, (E)-3-(4-hydroxy-3-methoxy-phenyl)prop-2-enoic acid] | – | 60.5 | 86.3 | 124.2 | 66.3 | 51.3 | 49.7
4 | Nc1ncnc2nc[nH]c12 [adenine] | – | – | 100.8 | 82.4 | – | – | –
5 | C[n+]1cccc(C(=O)[O-])c1 [trigonelline, 1-methylpyridinium-3-carboxylate] | – | 83.65 | 75.68 | – | – | – | –
6 | OC1C(O)C(O)C(O)C(O)C1O [D-Chiro-inositol, D-chiro-inositol] | – | 60.22 | 93.05 | 102.40 | 64.24 | 51.22 | 50.18
7 | C[C@H](O)C(=O)[O-].[Na+] [Sodium-L-lactate, sodium-L-lactate] | – | 93.77 | – | – | 61.83 | – | –
8 | CC(C)[C@H](N)C(=O)N[C@@H](CCC(=O)O)C(=O)O [valinylglutamate] (H-Val-Glu-OH) | 2064.16 | – | – | – | – | – | –
